Test results taken from patent publication US20230398130A1, “METHODS AND COMPOSITIONS FOR DIFFERENTIATING STEM CELLS” (Massachusetts Institute of Technology, priority 2020, published 2023).

Columns and labels:
ISC-enriched organoids [1] = experiment: Primary screen, 384-well 2.5-D organoid differentiation (ENR+CD, 6 days, Target Selective Inhibitor Library, vs whole-plate median): ATP (CellTiter-Glo 3D, CTG); settings: for Z.CTG: standard z score of FC; for Z.CTG (standard z score): primary screen
ISC-enriched organoids [2] = experiment: Secondary (validation) screen, 384-well 2.5-D, ENR+CD 6 days, n=8 wells, vs ENR+CD+DMSO control: ATP (CTG); format: cell-based, murine
Method: (§1) Drugs were tested at a narrowed dose range around each treatment's identified optimal dose from the primary screen (4× below, 2× above and below).
(§2) High-throughput screening.
(§3) Secondary lysozyme secretion assay screen. Confirmatory secondary screening with primary hits was performed using the above 384-well plate method. The screen was conducted with 4-plate replicates with a base media of ENR+CD. Media was supplemented with compound at day 0 and day 3 (n=8 well replicates per dose) at four different doses: two-fold above, two-fold below, and four-fold below the optimal final dose for each respective treatment. Additionally, each plate carried a large number of ENR+DMSO or ENR+CD+DMSO (vehicle) control wells (n=100 for ATP, and n=25 for LYZ.NS and LYZ.S) for robust normalization. ATP, non-stimulated lysozyme activity and CCh-stimulated lysozyme activity was again measured and the collected data was again processed in a custom R-script, per primary screen with slight modification. Values were log10 transformed, and a plate-wise FC was calculated for each well based on the median value of ENR+CD+DMSO (vehicle) control wells to normalize plate to plate variability.

ISC-enriched organoids [3] = experiment: Secondary (validation) screen, 384-well 2.5-D, ENR+CD 6 days, n=8 wells, vs ENR+CD+DMSO control: carbachol-induced lysozyme secretion (LYZ.S); format: cell-based, murine
Method: as §1, §2, §3

ISC-enriched organoids [4] = experiment: Secondary (validation) screen, 384-well 2.5-D, ENR+CD 6 days, n=8 wells, vs ENR+CD+DMSO control: basal lysozyme secretion (LYZ.NS); format: cell-based, murine
Method: as §1, §2, §3

SMILES: CC(C)(C)NC(=O)[C@H]1CC[C@H]2[C@@H]3CC[C@H]4NC(=O)C=C[C@]4(C)[C@H]3CC[C@]12C [Finasteride]
- Z.CTG (ISC-enriched organoids [1]; Dose 0.08 uM): 0.360
- Z.CTG (ISC-enriched organoids [1]; Dose 0.40 uM): −0.092
- Z.CTG (ISC-enriched organoids [1]; Dose 2.00 uM): 0.174
- Z.CTG (ISC-enriched organoids [1]; Dose 10.00 uM): −0.097
- Z.CTG (ISC-enriched organoids [2]; Dose 0.02 uM): 0.596
- repSSMD.CTG (ISC-enriched organoids [2]; Dose 0.02 uM): 0.358
- Z.CTG (ISC-enriched organoids [2]; Dose 0.04 uM): −1.623
- repSSMD.CTG (ISC-enriched organoids [2]; Dose 0.04 uM): −0.994
- Z.CTG (ISC-enriched organoids [2]; dose 0.08 uM): −0.099
- repSSMD.CTG (ISC-enriched organoids [2]; dose 0.08 uM): −0.083
- Z.LYZ.S (ISC-enriched organoids [3]; Dose 0.02 uM): −0.147
- repSSMD.LYZ.S (ISC-enriched organoids [3]; Dose 0.02 uM): −0.197
- Z.LYZ.S (ISC-enriched organoids [3]; Dose 0.04 uM): −1.996
- repSSMD.LYZ.S (ISC-enriched organoids [3]; Dose 0.04 uM): −3.825
- Z.LYZ.S (ISC-enriched organoids [3]; dose 0.08 uM): −1.859
- repSSMD.LYZ.S (ISC-enriched organoids [3]; dose 0.08 uM): −2.574
- Z.LYZ.NS (ISC-enriched organoids [4]; Dose 0.02 uM): 0.445
- repSSMD.LYZ.NS (ISC-enriched organoids [4]; Dose 0.02 uM): 0.362
- Z.LYZ.NS (ISC-enriched organoids [4]; Dose 0.04 uM): −1.510
- repSSMD.LYZ.NS (ISC-enriched organoids [4]; Dose 0.04 uM): −2.570
- Z.LYZ.NS (ISC-enriched organoids [4]; dose 0.08 uM): −1.522
- repSSMD.LYZ.NS (ISC-enriched organoids [4]; dose 0.08 uM): −2.177

SMILES: COc1ccc(C2CNC(=O)C2)cc1OC1CCCC1 (stereo not drawn) [Rolipram]
- Z.CTG (standard z score) (ISC-enriched organoids [1]; Dose 0.08 uM): 0.850
- Z.CTG (standard z score) (ISC-enriched organoids [1]; Dose 0.40 uM): 0.370
- Z.CTG (standard z score) (ISC-enriched organoids [1]; Dose 2.00 uM): 0.945
- Z.CTG (standard z score) (ISC-enriched organoids [1]; Dose 10.00 uM): 0.714
- Z.CTG (ISC-enriched organoids [2]; Dose 0.50 uM): 0.477
- repSSMD.CTG (ISC-enriched organoids [2]; Dose 0.50 uM): 0.368
- Z.CTG (ISC-enriched organoids [2]; Dose 1.00 uM): 1.198
- repSSMD.CTG (ISC-enriched organoids [2]; Dose 1.00 uM): 0.832
- Z.CTG (ISC-enriched organoids [2]; Dose 4.00 uM): 0.583
- repSSMD.CTG (ISC-enriched organoids [2]; Dose 4.00 uM): 0.447
- Z.CTG (ISC-enriched organoids [2]; dose 2.00 uM): 1.819
- repSSMD.CTG (ISC-enriched organoids [2]; dose 2.00 uM): 1.420
- Z.LYZ.S (ISC-enriched organoids [3]; Dose 0.50 uM): −0.631
- repSSMD.LYZ.S (ISC-enriched organoids [3]; Dose 0.50 uM): −0.936
- Z.LYZ.S (ISC-enriched organoids [3]; Dose 1.00 uM): 0.801
- repSSMD.LYZ.S (ISC-enriched organoids [3]; Dose 1.00 uM): 1.107
- Z.LYZ.S (ISC-enriched organoids [3]; Dose 4.00 uM): −0.543
- repSSMD.LYZ.S (ISC-enriched organoids [3]; Dose 4.00 uM): −0.736
- Z.LYZ.S (ISC-enriched organoids [3]; dose 2.00 uM): 0.227
- repSSMD.LYZ.S (ISC-enriched organoids [3]; dose 2.00 uM): 0.169
- Z.LYZ.NS (ISC-enriched organoids [4]; Dose 0.50 uM): −0.342
- repSSMD.LYZ.NS (ISC-enriched organoids [4]; Dose 0.50 uM): −0.478
- Z.LYZ.NS (ISC-enriched organoids [4]; Dose 1.00 uM): 1.213
- repSSMD.LYZ.NS (ISC-enriched organoids [4]; Dose 1.00 uM): 1.715
- Z.LYZ.NS (ISC-enriched organoids [4]; Dose 4.00 uM): −0.407
- repSSMD.LYZ.NS (ISC-enriched organoids [4]; Dose 4.00 uM): −0.543
- Z.LYZ.NS (ISC-enriched organoids [4]; dose 2.00 uM): 0.793
- repSSMD.LYZ.NS (ISC-enriched organoids [4]; dose 2.00 uM): 0.950

SMILES: CCOc1ccc(Cc2cc([C@@H]3O[C@H](CO)[C@@H](O)[C@H](O)[C@H]3O)ccc2Cl)cc1 [Dapagliflozin]
- Z.CTG (ISC-enriched organoids [1]; Dose 0.08 uM): 0.980
- Z.CTG (ISC-enriched organoids [1]; Dose 0.40 uM): 0.607
- Z.CTG (ISC-enriched organoids [1]; Dose 2.00 uM): 0.699
- Z.CTG (ISC-enriched organoids [1]; Dose 10.00 uM): 0.719
- Z.CTG (ISC-enriched organoids [2]; Dose 0.02 uM): 0.770
- repSSMD.CTG (ISC-enriched organoids [2]; Dose 0.02 uM): 0.643
- Z.CTG (ISC-enriched organoids [2]; Dose 0.04 uM): 1.569
- repSSMD.CTG (ISC-enriched organoids [2]; Dose 0.04 uM): 0.979
- Z.CTG (ISC-enriched organoids [2]; dose 0.08 uM): 1.346
- repSSMD.CTG (ISC-enriched organoids [2]; dose 0.08 uM): 0.777
- Z.LYZ.S (ISC-enriched organoids [3]; Dose 0.02 uM): −0.144
- repSSMD.LYZ.S (ISC-enriched organoids [3]; Dose 0.02 uM): −0.225
- Z.LYZ.S (ISC-enriched organoids [3]; Dose 0.04 uM): 0.528
- repSSMD.LYZ.S (ISC-enriched organoids [3]; Dose 0.04 uM): 0.751
- Z.LYZ.S (ISC-enriched organoids [3]; dose 0.08 uM): 0.530
- repSSMD.LYZ.S (ISC-enriched organoids [3]; dose 0.08 uM): 0.879
- Z.LYZ.NS (ISC-enriched organoids [4]; Dose 0.02 uM): 0.173
- repSSMD.LYZ.NS (ISC-enriched organoids [4]; Dose 0.02 uM): 0.231
- Z.LYZ.NS (ISC-enriched organoids [4]; Dose 0.04 uM): 1.197
- repSSMD.LYZ.NS (ISC-enriched organoids [4]; Dose 0.04 uM): 1.267
- Z.LYZ.NS (ISC-enriched organoids [4]; dose 0.08 uM): 0.462
- repSSMD.LYZ.NS (ISC-enriched organoids [4]; dose 0.08 uM): 0.537

SMILES: CCc1c(C(=O)C(N)=O)c2c(OCC(=O)O)cccc2n1Cc1ccccc1 [Varespladib (LY315920), Varespladib]
- Z.CTG (ISC-enriched organoids [2]; Dose 0.02 uM): 0.244
- repSSMD.CTG (ISC-enriched organoids [2]; Dose 0.02 uM): 0.187
- Z.CTG (ISC-enriched organoids [2]; Dose 0.04 uM): 1.019
- repSSMD.CTG (ISC-enriched organoids [2]; Dose 0.04 uM): 0.518
- Z.CTG (ISC-enriched organoids [2]; dose 0.08 uM): 1.862
- repSSMD.CTG (ISC-enriched organoids [2]; dose 0.08 uM): 1.114
- Z.LYZ.S (ISC-enriched organoids [3]; Dose 0.02 uM): −1.057
- repSSMD.LYZ.S (ISC-enriched organoids [3]; Dose 0.02 uM): −1.652
- Z.LYZ.S (ISC-enriched organoids [3]; Dose 0.04 uM): −0.339
- repSSMD.LYZ.S (ISC-enriched organoids [3]; Dose 0.04 uM): −0.641
- Z.LYZ.S (ISC-enriched organoids [3]; dose 0.08 uM): 0.497
- repSSMD.LYZ.S (ISC-enriched organoids [3]; dose 0.08 uM): 0.838
- Z.LYZ.NS (ISC-enriched organoids [4]; Dose 0.02 uM): −0.723
- repSSMD.LYZ.NS (ISC-enriched organoids [4]; Dose 0.02 uM): −0.763
- Z.LYZ.NS (ISC-enriched organoids [4]; Dose 0.04 uM): 0.123
- repSSMD.LYZ.NS (ISC-enriched organoids [4]; Dose 0.04 uM): 0.213
- Z.LYZ.NS (ISC-enriched organoids [4]; dose 0.08 uM): 0.718
- repSSMD.LYZ.NS (ISC-enriched organoids [4]; dose 0.08 uM): 1.251
